This is an account of results in US6020327A, “Control of hair growth” (The Central Sheffield University Hospitals NHS Trust, priority 1994, dated 2000).

Read-outs that look alike come from different tables or passages of the source.

The test system of data set [1] is aromatase activity in skin fibroblasts. Description: Stimulation of fibroblast aromatase by pre-incubating cultured skin fibroblasts with hormones (tritiated water release assay). Format: cell-based, human. The following applies: for fold induction at 0.01 µM: Homo sapiens, Skin fibroblast. Here is the method: (§1) In a preliminary study to investigate the above hypothesis we have measured aromatase activity in cultured human hair follicle dermal papilla cell lines and non-follicular skin fibroblasts from body sites with different responses to androgens. Aromatase was measured using the tritiated water released assay (13). The results are summarised as follows:
Fibroblast aromatase was stimulated by pre-incubating cells with testosterone at physiological concentrations (10 nmol). 19 cell lines were studied. Mean fold increase in aromatase activity (+/- SEM) was 2.69+/-0.38 (p<0.02 paired test). In separate experiments on three cell lines the response to a range of concentrations of testosterone and DHT was studied. Testosterone gave a twofold increase in aromatase maximal at 10 nmol. At the same concentration in response to DHT was over twice as great (4.3 fold).
Fibroblast aromatase was stimulated by pre-incubating the cells with testosterone at a physiological concentration (10 nmol). 19 cell lines were studied. Mean fold increase in aromatase activity (+/- SEM) was 2.69+/-0.38 (p<0.02 paired t test). In separate experiments on three cell lines the response to a range of concentrations of testosterone and DHT was studied. Testosterone gave a 2 fold increase in aromatase maximal at 10 nmol. At the same concentration the response to DHT was over twice as great (4.3 fold).

Data set [2] deals with aromatase activity in hair follicle dermal papilla cells. Description: Induction of aromatase in cultured hair follicle dermal papilla cells (tritiated water release assay). In kind it is cell-based, human. Here is the method:
as §1
No aromatase was detected in hair follicle dermal papilla cells cultured through any of the above sites (fourteen cell lines).
No aromatase was detected in hair follicle dermal papilla cells cultured from any of the above sites (14 cell lines).

In a further data set the test system is female hair loss. The conditions noted are these: several small trials, taken orally; cited from earlier work.
The target in data set [3] is T1, aromatase (Homo sapiens, UniProt P11511).
T1 sequence (P11511 1-503): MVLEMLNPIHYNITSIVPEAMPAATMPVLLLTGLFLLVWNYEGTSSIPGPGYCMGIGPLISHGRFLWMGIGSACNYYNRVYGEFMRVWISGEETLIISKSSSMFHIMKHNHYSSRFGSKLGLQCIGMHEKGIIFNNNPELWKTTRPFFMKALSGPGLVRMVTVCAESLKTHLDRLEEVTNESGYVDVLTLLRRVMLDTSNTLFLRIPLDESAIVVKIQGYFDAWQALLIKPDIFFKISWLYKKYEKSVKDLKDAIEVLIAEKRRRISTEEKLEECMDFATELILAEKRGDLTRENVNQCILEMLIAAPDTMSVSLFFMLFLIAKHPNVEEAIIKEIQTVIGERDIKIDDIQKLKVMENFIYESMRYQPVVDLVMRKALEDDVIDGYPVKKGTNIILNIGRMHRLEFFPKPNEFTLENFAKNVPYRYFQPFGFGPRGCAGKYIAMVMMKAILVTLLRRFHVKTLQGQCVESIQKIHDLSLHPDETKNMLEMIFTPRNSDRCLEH
Nature of the data set: Aromatase by tritiated water assay in minced scalp skin samples, with and without aromatase inhibitor. In kind it is biochemical. The arrangement: endogenous in cells; host or cells: cultured human non-follicular skin fibroblast lines (beard, occipital scalp, frontal scalp). The following applies: addition of 25 nmol to minced scalp skin samples.
Description: To determine whether the results obtained using cell culture are representative of events occurring in vivo aromatase was measured by the tritiated water assay in skin samples from male and female scalp. Tissue was minced and then incubated with 1β^3 H-androstenedione together with a source of NADPH. Each assay was done in the presence and absence of an aromatase inhibitor (4OH-androstenedione). Placental tissue was used as a positive control.

Data set [4] concerns the target T1, aromatase. Description: Aromatase activity by tritiated water release assay in cultured skin fibroblasts: substrate kinetics and inhibition.
Description: (§2) Enzymic kinetic values were established by incubating cells with the substrate (androstenedione) in a range of concentrations.
(§3) Enzyme kinetic values were established by incubating cells with the substrate (androstenedione) in a range of concentrations.
The test system of another data set is balding. The conditions noted are these: topical application, humans; cited from earlier work.
Substrate in data set [5]: C[C@]12CCC(=O)C=C1CC[C@@H]1[C@@H]2CC[C@]2(C)C(=O)CC[C@@H]12
Description: cells, lysate or membranes. The following applies: other: skin fibroblast lines from beard, occipital scalp and frontal scalp; no difference between the three sites.
Description: as §2, §3

[6] abbreviates: read-out: Fold increase in aromatase.

The IC50 is the point on the concentration scale where inhibition reaches its midpoint. Higher therefore signals weaker potency in that assay.

Turning to `C[C@@H]1C[C@H]2[C@@H]3CCC4=CC(=O)C=C[C@]4(C)[C@@]3(F)[C@@H](O)C[C@]2(C)[C@@]1(O)C(=O)CO` [Dexamethasone], the “Stimulation of aromatase in fibroblasts” value in data set [1] (skin fibroblasts) is on record as 10-20 fold. Besides, the “Induction of aromatase in dermal papilla cells” value in data set [2] was “induced aromatase”.
`C[C@]12CC[C@H]3[C@@H](CCC4=CC(=O)CC[C@@]43C)[C@@H]1CC[C@@H]2O` [testosterone]: the fold induction at 0.01 µM in data set [1] (setting [6]) is 2; in data set [1] (read-out: Mean fold increase in aromatase activity (+/- SEM)), 2.69 ± 0.38. In addition, the “Mean fold increase in aromatase activity (+/- SEM)” value in data set [1] (pre-incubation with 10 nmol, 19 fibroblast cell lines, p<0.02) is 2.69+/-0.38 fold. Also, the “Fold increase in aromatase” value in data set [1] (separate experiments on three cell lines, range of concentrations, at 10 nmol (maximal for testosterone)) is given as “twofold”. The “Induction of aromatase in dermal papilla cells” value in data set [2] is “failed to induce aromatase”.
Turning to `CC(=O)O[C@]1(C(C)=O)CC[C@H]2[C@@H]3C=C(Cl)C4=CC(=O)[C@@H]5C[C@@H]5[C@]4(C)[C@H]3CC[C@@]21C` [cyproterone acetate], the “Effect on the aromatase response to testosterone and DHT” value in data set [1] (skin fibroblasts, androgen receptor blockade) is “inhibited”. Besides, the “Effect in female hair loss” value with female hair loss is “small positive affect”.
With `C[C@]12CCC(=O)C[C@@H]1CC[C@@H]1[C@@H]2CC[C@]2(C)[C@@H](O)CC[C@@H]12` [DHT, dihydrotestosterone], the fold induction at 0.01 µM in data set [1] (setting [6]) came out at 4.3.
`C[C@]12CCC(=O)C(O)=C1CC[C@@H]1[C@@H]2CC[C@]2(C)C(=O)CC[C@@H]12` [4-OH androstenedione]: at aromatase [3], the “Effect on aromatase activity in scalp tissue” value was “reduced activity to background levels”. At aromatase [4], this molecule gave an IC50 of approximately 25 nM. Moreover, the “Type of inhibition of fibroblast aromatase (kinetic studies)” value at aromatase [4] (three cell lines) is “irreversible competitive inhibition”.
For the molecule `Nc1cc(N2CCCCC2)nc(N)[n+]1[O-]` [Minoxidil], the “Subjects with modest recovery in early balding” value in the data set on balding is given as “about 30 % of subjects”.

B1: aromatase (Homo sapiens) (protein)
chain: MVLEMLNPIHYNITSIVPEAMPAATMPVLLLTGLFLLVWNYEGTSSIPGPGYCMGIGPLISHGRFLWMGIGSACNYYNRVYGEFMRVWISGEETLIISKSSSMFHIMKHNHYSSRFGSKLGLQCIGMHEKGIIFNNNPELWKTTRPFFMKALSGPGLVRMVTVCAESLKTHLDRLEEVTNESGYVDVLTLLRRVMLDTSNTLFLRIPLDESAIVVKIQGYFDAWQALLIKPDIFFKISWLYKKYEKSVKDLKDAIEVLIAEKRRRISTEEKLEECMDFATELILAEKRGDLTRENVNQCILEMLIAAPDTMSVSLFFMLFLIAKHPNVEEAIIKEIQTVIGERDIKIDDIQKLKVMENFIYESMRYQPVVDLVMRKALEDDVIDGYPVKKGTNIILNIGRMHRLEFFPKPNEFTLENFAKNVPYRYFQPFGFGPRGCAGKYIAMVMMKAILVTLLRRFHVKTLQGQCVESIQKIHDLSLHPDETKNMLEMIFTPRNSDRCLEH
B1: the Km in data set [5] worked out at 25 nmol.
